Structures can show the parent of a compound that is named as a salt.
Assay: In-Vitro Release Test (Franz Cell diffusion apparatus, 0.45 um Durapore HVLP membrane)
Type: physicochemical
Details: 0.5-6 hours at 35° C.
Experimental: A 0.45 um Durapore HVLP membrane was used between the donor and receptor compartments. The receptor fluid used for analysis of lidocaine HCl was 0.2M NaH2PO4/EtOH/SDS (69/30/1). The receptor fluid used for analysis of metronidazole was 600 mL Ethanol (USP) and 400 mL Phosphate Buffer (1.3 g Na2HPO4 and 1.5 g KH2PO4). The receptor fluid used for analysis of allantoin was 10 mM KH2PO4 buffer (pH=4.7). The sampling of the receptor fluid was performed at 0.5, 1, 2, 4 and 6 hours at 35° C. The concentration of the released actives in the collected samples of the receptor fluid was determined by HPLC analysis. The HPLC mobile phase used for analysis of lidocaine HCl was 0.2M NaH2PO4/EtOH/SDS (69/30/1). The HPLC mobile phase used for analysis of metronidazole was 600 mL Ethanol (USP) and 400 mL Phosphate Buffer (1.3 g Na2HPO4 and 1.5 g KH2PO4). The HPLC mobile phase used for analysis of allantoin was ACN/Water (90/10).

SMILES: NC(=O)NC1NC(=O)NC1=O (stereo not drawn) [allantoin, Allantoin]
- rate of release of allantoin (Formulas D, E, F (0%, 0.45%, 0.75% gellan gum; 0.1% allantoin) W/O emulsion, receptor fluid 10 mM KH2PO4 buffer pH 4.7, FIG. 3 and FIG. 4): increased as the concentration of gellan gum increased

SMILES: CCN(CC)CC(=O)Nc1c(C)cccc1C [lidocaine HCl, Lidocaine HCl]
- rate of release of lidocaine HCl (Formulas G, H, I (0%, 0.45%, 0.75% gellan gum; 2.0% lidocaine HCl) W/O emulsion, receptor fluid 0.2M NaH2PO4/EtOH/SDS (69/30/1), FIG. 5 and FIG. 6): increased as the concentration of gellan gum increased

SMILES: Cc1ncc([N+](=O)[O-])n1CCO [metronidazole, Metronidazole]
- rate of release of metronidazole (Formulas A, B, C (0%, 0.45%, 0.75% gellan gum; 0.75% metronidazole) W/O emulsion, receptor fluid ethanol/phosphate buffer, FIG. 1 and FIG. 2): increased as the concentration of gellan gum increased

Source: patent publication US9132291B2, “Water-in-oil emulsion compositions containing gellan gum for topical delivery of active ingredients to the skin or mucosa” (DFB Technology, Ltd., priority 2010, dated 2015)
